Laboratory results published in patent US10899737B2, “Piperazine carbamates and methods of making and using same” (Lundbeck La Jolla Research Center, Inc., priority 2016, dated 2021).

Legend:
[1] = biological target: T1, MAGL (Homo sapiens, UniProt Q99685); test: In vitro competitive activity-based protein profiling (human), MAGL; format: biochemical; conditions: for inhibition at 1 µM: 1 μM inhibitor, human proteome, 30 min preincubation at 37° C, read-out: MAGL % inh. 1 μM (human); for IC50: human PC3
T1 construct: Proteomes (human prefrontal cortex or cell membrane fractions); from tissue
T1 sequence (Q99685 1-303): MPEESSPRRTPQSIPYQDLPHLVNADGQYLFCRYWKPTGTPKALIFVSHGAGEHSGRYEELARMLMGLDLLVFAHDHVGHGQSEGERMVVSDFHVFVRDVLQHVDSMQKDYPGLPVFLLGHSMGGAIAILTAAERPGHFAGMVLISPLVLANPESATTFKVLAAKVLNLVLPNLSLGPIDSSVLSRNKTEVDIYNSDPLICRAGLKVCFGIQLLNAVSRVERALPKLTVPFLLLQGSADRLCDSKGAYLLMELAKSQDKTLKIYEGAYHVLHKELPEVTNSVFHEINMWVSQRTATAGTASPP
Experimental: (§1) In Vitro Competitive Activity-Based Protein Profiling (Human).
(§2) Proteomes (human prefrontal cortex or cell membrane fractions) (50 μL, 1.0-2.0 mg/mL total protein concentration) were preincubated with varying concentrations of inhibitors at 37° C. After 30 min, FP-Rh or JW912 (1.0 μL, 50 μM in DMSO) was added and the mixture was incubated for another 30 min at room temperature. Reactions were quenched with SDS loading buffer (15 μL-4×) and run on SDS-PAGE. Following gel imaging, serine hydrolase activity was determined by measuring fluorescent intensity of gel bands corresponding to MAGL and ABHD6 using ImageJ 1.49 k software.

[2] = biological target: T2, ABHD6 (Homo sapiens, UniProt Q9BV23); test: In vitro competitive activity-based protein profiling (human), ABHD6; format: biochemical; conditions: human PC3
T2 construct: Proteomes (human prefrontal cortex or cell membrane fractions); endogenous in cells; human prefrontal cortex
T2 sequence (Q9BV23 1-337): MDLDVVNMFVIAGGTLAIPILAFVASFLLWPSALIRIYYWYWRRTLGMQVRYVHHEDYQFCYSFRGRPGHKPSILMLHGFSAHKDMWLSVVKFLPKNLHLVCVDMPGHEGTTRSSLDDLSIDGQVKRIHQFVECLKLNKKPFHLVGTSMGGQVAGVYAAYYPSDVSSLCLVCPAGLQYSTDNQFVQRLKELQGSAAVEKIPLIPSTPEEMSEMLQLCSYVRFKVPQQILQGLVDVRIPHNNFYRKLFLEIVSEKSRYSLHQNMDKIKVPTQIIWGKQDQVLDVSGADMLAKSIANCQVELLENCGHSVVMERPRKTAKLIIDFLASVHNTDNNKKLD
Experimental: as §1, §2

[3] = biological target: T3, ABHD6 (Mus musculus, UniProt Q8R2Y0); test: In vitro competitive activity-based protein profiling (mouse), ABHD6; format: biochemical; conditions: 1 μM inhibitor, mouse brain membrane fraction or cell lysates; read-out: ABHD6 % inh. 1 μM (mouse)
T3 construct: Proteomes (mouse brain membrane fraction or cell lysates); from tissue; host or cells: mouse brain membrane fraction or cell lysates
T3 sequence (Q8R2Y0 1-336): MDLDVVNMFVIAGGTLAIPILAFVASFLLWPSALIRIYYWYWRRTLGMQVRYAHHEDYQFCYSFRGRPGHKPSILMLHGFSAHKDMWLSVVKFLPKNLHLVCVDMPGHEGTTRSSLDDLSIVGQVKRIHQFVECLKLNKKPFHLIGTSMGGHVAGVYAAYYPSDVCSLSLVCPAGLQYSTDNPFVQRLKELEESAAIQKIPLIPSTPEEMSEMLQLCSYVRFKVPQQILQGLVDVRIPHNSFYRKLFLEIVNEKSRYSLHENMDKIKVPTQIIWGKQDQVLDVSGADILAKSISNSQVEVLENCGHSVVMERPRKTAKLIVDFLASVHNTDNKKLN
Experimental: (§3) In Vitro Competitive Activity-Based Protein Profiling (Mouse).
(§4) Proteomes (mouse brain membrane fraction or cell lysates) (50 μL, 1.0 mg/mL total protein concentration) were preincubated with varying concentrations of inhibitors at 37° C. After 30 min, FP-Rh (1.0 μL, 50 μM in DMSO) was added and the mixture was incubated for another 30 min at 37° C. Reactions were quenched with SDS loading buffer (50 μL-4×) and run on SDS-PAGE. Following gel imaging, serine hydrolase activity was determined by measuring fluorescent intensity of gel bands corresponding to MAGL and ABHD6 using ImageJ 1.49 k software. Data from this assay is shown in Table 1 (% inhibition at 1 μM).

[4] = biological target: T4, MAGL (Mus musculus, UniProt O35678); test: In vitro competitive activity-based protein profiling (mouse), MAGL; format: biochemical; conditions: for inhibition at 1 µM: 1 μM inhibitor, mouse brain membrane fraction or cell lysates, read-out: MAGL % inh. 1 μM (mouse)
T4 construct: Proteomes (mouse brain membrane fraction or cell lysates); from tissue; host or cells: mouse brain membrane fraction or cell lysates
T4 sequence (O35678 1-303): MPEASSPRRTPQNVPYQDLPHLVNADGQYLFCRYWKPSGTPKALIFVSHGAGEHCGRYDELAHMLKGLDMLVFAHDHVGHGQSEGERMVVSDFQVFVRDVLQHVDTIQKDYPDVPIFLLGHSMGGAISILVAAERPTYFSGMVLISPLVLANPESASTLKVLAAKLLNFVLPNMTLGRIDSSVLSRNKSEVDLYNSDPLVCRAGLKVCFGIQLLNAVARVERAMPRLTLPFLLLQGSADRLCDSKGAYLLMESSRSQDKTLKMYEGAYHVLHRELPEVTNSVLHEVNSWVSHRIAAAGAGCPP
Experimental: as §3, §4

[5] = biological target: T4, MAGL; test: Mouse brain proteomes from inhibitor treated mice, MAGL inhibition; format: in vivo; conditions: 5 mg/kg oral gavage, C57Bl/6J mouse brain, 4 h following administration; read-out: MAGL % inh. 5 mg/kg (mouse)
Experimental: Preparation of Mouse Brain Proteomes from Inhibitor Treated Mice.
Inhibitors were administered to wild-type C57Bl/6J by oral gavage in a vehicle of polyethylene glycol. Each animal was sacrificed 4 h following administration and brain proteomes were prepared and analyzed according to previously established methods (See Niphakis, M. J., et al. (2011) ACS Chem. Neurosci. and Long, J. Z., et al. Nat. Chem. Biol. 5:37-44).

Row | Structure (SMILES) | inhibition at 1 µM [1] | IC50 [1] | IC50 [2] | inhibition at 1 µM [3] | inhibition at 1 µM [4] | inhibition at 5 mg/kg [5] | IC50 ([4]; mouse proteome)
1 | O=C(OC(C(F)(F)F)C(F)(F)F)N1CCN(Cc2ccc(C(F)F)cc2C2(C(=O)O)CCCC2)CC1 [Example 27, 1-(5-(Difluoromethyl)-2-((4-(((1,1,1,3,3,3-hexafluoropropan-2-yl)oxy)carbonyl)piperazin-1-yl)methyl)phenyl)cyclopentane-1-carboxylic Acid] | ≥ 75% | ≤ 0.1 µM | 1 to 10 µM | 0 to 25% | ≥ 75% | ≥ 75% | –
2 | O=C(O)[C@@H]1CC(c2cc(C(F)(F)F)ccc2CN2CCN(C(=O)OC(C(F)(F)F)C(F)(F)F)CC2)CN1 (stereo partly drawn) [Example 7, (2S)-4-(2-((4-(((1,1,1,3,3,3-Hexafluoropropan-2-yl)oxy)carbonyl)piperazin-1-yl)methyl)-5-(trifluoromethyl)phenyl)pyrrolidine-2-carboxylic Acid] | ≥ 75% | ≤ 0.1 µM | 1 to 10 µM | 25 to 50% | ≥ 75% | 25 to 50% | –
3 | O=C(O)C1CCN(Cc2cc(C(F)(F)F)ccc2CN2CCN(C(=O)OC(C(F)(F)F)C(F)(F)F)CC2)CC1 [Example 41, 1-(2-((4-(((1,1,1,3,3,3-hexafluoropropan-2-yl)oxy)carbonyl)piperazin-1-yl)methyl)-5-(trifluoromethyl)benzyl)piperidine-4-carboxylic acid] | ≥ 75% | 0.1 to 1 µM | 1 to 10 µM | 0 to 25% | ≥ 75% | – | –
4 | CCCC1(C(=O)O)CCN(c2cc(CN3CCN(C(=O)OC(C(F)(F)F)C(F)(F)F)CC3)cc(C(F)(F)F)c2)CC1 [Example 52, 1-(3-((4-(((1,1,1,3,3,3-hexafluoropropan-2-yl)oxy)carbonyl)piperazin-1-yl)methyl)-5-(trifluoromethyl)phenyl)-4-propylpiperidine-4-carboxylic acid] | ≥ 75% | ≤ 0.1 µM | 0.1 to 1 µM | ≥ 75% | ≥ 75% | – | –
5 | O=C(O)C1COCCN1c1cc(CN2CCN(C(=O)OC(C(F)(F)F)C(F)(F)F)CC2)cc(C(F)(F)F)c1 (stereo not drawn) [Example 68, 4-(3-((4-(((1,1,1,3,3,3-hexafluoropropan-2-yl)oxy)carbonyl)piperazin-1-yl)methyl)-5-(trifluoromethyl)phenyl)morpholine-3-carboxylic acid] | ≥ 75% | ≤ 0.1 µM | 0.1 to 1 µM | ≥ 75% | ≥ 75% | – | –
6 | O=C(O)[C@H]1CCCN(c2cc(CN3CCN(C(=O)OC(C(F)(F)F)C(F)(F)F)CC3)cc(C(F)(F)F)c2)C1 [Example 81, (S)-1-(3-((4-(((1,1,1,3,3,3-hexafluoropropan-2-yl)oxy)carbonyl)piperazin-1-yl)methyl)-5-(trifluoromethyl)phenyl)piperidine-3-carboxylic acid] | ≥ 75% | ≤ 0.1 µM | 0.1 to 1 µM | ≥ 75% | ≥ 75% | – | –
7 | CC1(C(=O)O)CCN(c2cc(CN3CCN(C(=O)OC(C(F)(F)F)C(F)(F)F)CC3)cc(C(F)(F)F)c2)CC1 [Example 29, 1-(3-((4-(((1,1,1,3,3,3-Hexafluoropropan-2-yl)oxy)carbonyl)piperazin-1-yl)methyl)-5-(trifluoromethyl)phenyl)-4-methylpiperidine-4-carboxylic Acid] | ≥ 75% | ≤ 0.1 µM | ≤ 0.1 µM | ≥ 75% | ≥ 75% | – | –

The remaining lines, values ahead:

Row | inhibition at 1 µM [1] | IC50 [1] | IC50 [2] | inhibition at 1 µM [3] | inhibition at 1 µM [4] | inhibition at 5 mg/kg [5] | IC50 ([4]; mouse proteome) | Structure (SMILES)
8 | ≥ 75% | – | – | 0 to 25% | ≥ 75% | 25 to 50% | ≤ 0.1 µM | O=C(O)CN1CCN(c2cc(C(F)(F)F)ccc2CN2CCN(C(=O)OC(C(F)(F)F)C(F)(F)F)CC2)CC1 [Example 42]
9 | ≥ 75% | ≤ 0.1 µM | 0.1 to 1 µM | ≥ 75% | ≥ 75% | 0 to 25% | – | CCC(C(=O)O)n1cc(-c2cc(C(F)(F)F)ccc2CN2CCN(C(=O)OC(C(F)(F)F)C(F)(F)F)CC2)cn1 (stereo not drawn) [Example 5, 2-(4-(2-((4-(((1,1,1,3,3,3-Hexafluoropropan-2-yl)oxy)carbonyl)piperazin-1-yl)methyl)-5-(trifluoromethyl)phenyl)-1H-pyrazol-1-yl)butanoic Acid]
10 | ≥ 75% | ≤ 0.1 µM | 0.1 to 1 µM | 0 to 25% | ≥ 75% | 0 to 25% | – | O=C(O)Cn1ccc(-c2cc(Cl)ccc2CN2CCN(C(=O)OC(C(F)(F)F)C(F)(F)F)CC2)n1 [Example 12, 2-(3-(5-Chloro-2-((4-(((1,1,1,3,3,3-hexafluoropropan-2-yl)oxy)carbonyl)piperazin-1-yl)methyl)phenyl)-1H-pyrazol-1-yl)acetic Acid]
11 | ≥ 75% | ≤ 0.1 µM | 1 to 10 µM | 0 to 25% | ≥ 75% | – | – | O=C(O)CN1CCC2(C1)CN(c1cc(Cl)ccc1CN1CCN(C(=O)OC(C(F)(F)F)C(F)(F)F)CC1)C2 [Example 48, 2-(2-(5-chloro-2-((4-(((1,1,1,3,3,3-hexafluoropropan-2-yl)oxy)carbonyl)piperazin-1-yl)methyl)phenyl)-2,6-diazaspiro[3.4]octan-6-yl)acetic acid]
12 | ≥ 75% | ≤ 0.1 µM | 0.1 to 1 µM | ≥ 75% | ≥ 75% | – | – | O=C(OC(C(F)(F)F)C(F)(F)F)N1CCN(Cc2cc(Cl)cc(C3(C(=O)O)CCCC3)c2)CC1 [Example 32, 1-(3-Chloro-5-((4-(((1,1,1,3,3,3-hexafluoropropan-2-yl)oxy)carbonyl)piperazin-1-yl)methyl)phenyl)cyclopentane-1-carboxylic Acid]
13 | ≥ 75% | ≤ 0.1 µM | 0.1 to 1 µM | 0 to 25% | ≥ 75% | – | – | N#Cc1ccc(CN2CCN(C(=O)OC(C(F)(F)F)C(F)(F)F)CC2)c(N2CCC(C(=O)O)CC2)c1 [Example 69, 1-(5-cyano-2-((4-(((1,1,1,3,3,3-hexafluoropropan-2-yl)oxy)carbonyl)piperazin-1-yl)methyl)phenyl)piperidine-4-carboxylic acid]
